From PubChem BioAssay AID1963968 (Molecular Pharmacology Branch, DTP, NCI, 2024)
pIC50: −log10 of the molar value.

Tested on: 945468-187-T-J3-PDC spheroids with HUVEC/MSC, viability
Assay: Anticancer human tumor 945468-187-T-J3-PDC patient-derived rectal carcinoma cell line growth inhibition [PI3K]
Conditions: for pIC50: curve of first compound; for viability, T/C: stronger effect = lower value
Outline: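 Targeted small molecules plus PI3K inhibitors, half-log dose series from Cmax (default top 10 microM), were applied to heterotypic spheroids of cancer cells with HUVEC and MSCs. Viability indicated growth inhibition.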

[1] = second compound 0.00316 µM, first compound 0.0316 µM
[2] = second compound 0.00316 µM, first compound 0.1 µM
[3] = second compound 0.01 µM, first compound 0.0316 µM
[4] = second compound 0.01 µM, first compound 0.1 µM
[5] = second compound 0.0316 µM, first compound 0.0316 µM
[6] = second compound 0.0316 µM, first compound 0.1 µM
[7] = second compound 0.1 µM, first compound 0.0316 µM
[8] = second compound 0.1 µM, first compound 0.1 µM
[9] = second compound 0.316 µM, first compound 0.0316 µM
[10] = second compound 0.316 µM, first compound 0.1 µM
[11] = second compound 1 µM, first compound 0.0316 µM
[12] = second compound 1 µM, first compound 0.1 µM
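Also: spheroids exposed to agents for 7 days before viability read.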
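For viability, T/C in this document: 100% = DMSO vehicle control viability.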

CC(=O)c1c(C)c2cnc(Nc3ccc(N4CCNCC4)cn3)nc2n(C2CCCC2)c1=O + COc1c(OCCCN2CCOCC2)ccc2c3n(c(=NC(=O)c4cnc(N)nc4)nc12)CCN3
pIC50 (second compound 0.00316 µM): < 7.00
pIC50 (second compound 0.01 µM): < 7.00
pIC50 (second compound 0.0316 µM): < 7.00
pIC50 (second compound 0.1 µM): > 9.50
pIC50 (second compound 0.316 µM): > 9.50
pIC50 (second compound 1 µM): > 9.50
viability, T/C (second compound 0.00316 µM, first compound 0.000316 µM): 99%
viability, T/C (second compound 0.00316 µM, first compound 0.001 µM): 106%
viability, T/C (second compound 0.00316 µM, first compound 0.00316 µM): 118%
viability, T/C (second compound 0.00316 µM, first compound 0.01 µM): 92.3%
viability, T/C [1]: 103%
viability, T/C [2]: 101%
viability, T/C (second compound 0.01 µM, first compound 0.000316 µM): 92.4%
viability, T/C (second compound 0.01 µM, first compound 0.001 µM): 87.1%
viability, T/C (second compound 0.01 µM, first compound 0.00316 µM): 90.3%
viability, T/C (second compound 0.01 µM, first compound 0.01 µM): 97.5%
viability, T/C [3]: 95.7%
viability, T/C [4]: 104%
viability, T/C (second compound 0.0316 µM, first compound 0.000316 µM): 82.9%
viability, T/C (second compound 0.0316 µM, first compound 0.001 µM): 90.3%
viability, T/C (second compound 0.0316 µM, first compound 0.00316 µM): 89.9%
viability, T/C (second compound 0.0316 µM, first compound 0.01 µM): 85.2%
viability, T/C [5]: 89%
viability, T/C [6]: 74.8%
viability, T/C (second compound 0.1 µM, first compound 0.000316 µM): 43.1%
viability, T/C (second compound 0.1 µM, first compound 0.001 µM): 48.6%
viability, T/C (second compound 0.1 µM, first compound 0.00316 µM): 48.7%
viability, T/C (second compound 0.1 µM, first compound 0.01 µM): 37.6%
viability, T/C [7]: 37.9%
viability, T/C [8]: 32.5%
viability, T/C (second compound 0.316 µM, first compound 0.000316 µM): 23%
viability, T/C (second compound 0.316 µM, first compound 0.001 µM): 20.6%
viability, T/C (second compound 0.316 µM, first compound 0.00316 µM): 20%
viability, T/C (second compound 0.316 µM, first compound 0.01 µM): 19.2%
viability, T/C [9]: 19.6%
viability, T/C [10]: 17.6%
viability, T/C (second compound 1 µM, first compound 0.000316 µM): 16%
viability, T/C (second compound 1 µM, first compound 0.001 µM): 17.7%
viability, T/C (second compound 1 µM, first compound 0.00316 µM): 16.7%
viability, T/C (second compound 1 µM, first compound 0.01 µM): 16.2%
viability, T/C [11]: 13.6%
viability, T/C [12]: 14.1%

CNC(=O)c1ccc(N2C(=S)N(c3ccc(C#N)c(C(F)(F)F)c3)C(=O)C2(C)C)cc1F + COc1c(OCCCN2CCOCC2)ccc2c3n(c(=NC(=O)c4cnc(N)nc4)nc12)CCN3
pIC50 (second compound 0.00316 µM): < 5.00
pIC50 (second compound 0.01 µM): < 5.00
pIC50 (second compound 0.0316 µM): < 5.00
pIC50 (second compound 0.1 µM): > 7.50
pIC50 (second compound 0.316 µM): > 7.50
pIC50 (second compound 1 µM): > 7.50
viability, T/C [1]: 102%
viability, T/C [2]: 94.3%
viability, T/C (second compound 0.00316 µM, first compound 0.316 µM): 98.5%
viability, T/C (second compound 0.00316 µM, first compound 1 µM): 84.6%
viability, T/C (second compound 0.00316 µM, first compound 3.16 µM): 98.2%
viability, T/C (second compound 0.00316 µM, first compound 10 µM): 99.9%
viability, T/C [3]: 98.9%
viability, T/C [4]: 97.1%
viability, T/C (second compound 0.01 µM, first compound 0.316 µM): 90%
viability, T/C (second compound 0.01 µM, first compound 1 µM): 95.2%
viability, T/C (second compound 0.01 µM, first compound 3.16 µM): 100%
viability, T/C (second compound 0.01 µM, first compound 10 µM): 117%
viability, T/C [5]: 101%
viability, T/C [6]: 103%
viability, T/C (second compound 0.0316 µM, first compound 0.316 µM): 96.7%
viability, T/C (second compound 0.0316 µM, first compound 1 µM): 104%
viability, T/C (second compound 0.0316 µM, first compound 3.16 µM): 111%
viability, T/C (second compound 0.0316 µM, first compound 10 µM): 98%
viability, T/C [7]: 44.1%
viability, T/C [8]: 39.7%
viability, T/C (second compound 0.1 µM, first compound 0.316 µM): 46.2%
viability, T/C (second compound 0.1 µM, first compound 1 µM): 53.9%
viability, T/C (second compound 0.1 µM, first compound 3.16 µM): 64.6%
viability, T/C (second compound 0.1 µM, first compound 10 µM): 51.5%
viability, T/C [9]: 25.1%
viability, T/C [10]: 26.6%
viability, T/C (second compound 0.316 µM, first compound 0.316 µM): 22.8%
viability, T/C (second compound 0.316 µM, first compound 1 µM): 23.4%
viability, T/C (second compound 0.316 µM, first compound 3.16 µM): 28.4%
viability, T/C (second compound 0.316 µM, first compound 10 µM): 28.5%
viability, T/C [11]: 17.5%
viability, T/C [12]: 21.3%
viability, T/C (second compound 1 µM, first compound 0.316 µM): 14.4%
viability, T/C (second compound 1 µM, first compound 1 µM): 21.6%
viability, T/C (second compound 1 µM, first compound 3.16 µM): 17.8%
viability, T/C (second compound 1 µM, first compound 10 µM): 16.9%

Cn1cnc2c(F)c(Nc3ccc(Br)cc3Cl)c(C(=O)NOCCO)cc21 + COc1c(OCCCN2CCOCC2)ccc2c3n(c(=NC(=O)c4cnc(N)nc4)nc12)CCN3
pIC50 (second compound 0.00316 µM): < 5.52
pIC50 (second compound 0.01 µM): 5.90
pIC50 (second compound 0.0316 µM): 6.81
pIC50 (second compound 0.1 µM): > 8.02
pIC50 (second compound 0.316 µM): > 8.02
pIC50 (second compound 1 µM): > 8.02
viability, T/C (second compound 0.00316 µM, first compound 0.00949 µM): 103%
viability, T/C (second compound 0.00316 µM, first compound 0.03 µM): 99.9%
viability, T/C (second compound 0.00316 µM, first compound 0.0949 µM): 103%
viability, T/C (second compound 0.00316 µM, first compound 0.3 µM): 91.7%
viability, T/C (second compound 0.00316 µM, first compound 0.949 µM): 91.8%
viability, T/C (second compound 0.00316 µM, first compound 3 µM): 68%
viability, T/C (second compound 0.01 µM, first compound 0.00949 µM): 96.1%
viability, T/C (second compound 0.01 µM, first compound 0.03 µM): 103%
viability, T/C (second compound 0.01 µM, first compound 0.0949 µM): 89.8%
viability, T/C (second compound 0.01 µM, first compound 0.3 µM): 80.7%
viability, T/C (second compound 0.01 µM, first compound 0.949 µM): 56.4%
viability, T/C (second compound 0.01 µM, first compound 3 µM): 29.9%
viability, T/C (second compound 0.0316 µM, first compound 0.00949 µM): 93.5%
viability, T/C (second compound 0.0316 µM, first compound 0.03 µM): 67.4%
viability, T/C (second compound 0.0316 µM, first compound 0.0949 µM): 64.3%
viability, T/C (second compound 0.0316 µM, first compound 0.3 µM): 36.4%
viability, T/C (second compound 0.0316 µM, first compound 0.949 µM): 27.8%
viability, T/C (second compound 0.0316 µM, first compound 3 µM): 13.7%
viability, T/C (second compound 0.1 µM, first compound 0.00949 µM): 42.2%
viability, T/C (second compound 0.1 µM, first compound 0.03 µM): 33.9%
viability, T/C (second compound 0.1 µM, first compound 0.0949 µM): 27.4%
viability, T/C (second compound 0.1 µM, first compound 0.3 µM): 14.7%
viability, T/C (second compound 0.1 µM, first compound 0.949 µM): 9.64%
viability, T/C (second compound 0.1 µM, first compound 3 µM): 3.84%
viability, T/C (second compound 0.316 µM, first compound 0.00949 µM): 17.5%
viability, T/C (second compound 0.316 µM, first compound 0.03 µM): 18.3%
viability, T/C (second compound 0.316 µM, first compound 0.0949 µM): 10%
viability, T/C (second compound 0.316 µM, first compound 0.3 µM): 8.2%
viability, T/C (second compound 0.316 µM, first compound 0.949 µM): 3.92%
viability, T/C (second compound 0.316 µM, first compound 3 µM): 1.13%
viability, T/C (second compound 1 µM, first compound 0.00949 µM): 13.6%
viability, T/C (second compound 1 µM, first compound 0.03 µM): 8.89%
viability, T/C (second compound 1 µM, first compound 0.0949 µM): 7.97%
viability, T/C (second compound 1 µM, first compound 0.3 µM): 4.92%
viability, T/C (second compound 1 µM, first compound 0.949 µM): 4.14%
viability, T/C (second compound 1 µM, first compound 3 µM): 1.82%
